Assays:
[1] = tested on: PBMCs from TG allergic donors; test: IFNg ELISPOT of TG extract-expanded PBMCs from TG allergic donors (single peptides); type: cell-based, human; details: for Total response IFNg Events: number of positive response events
human IgE = test: 2D gel immunoblot of TG extract with serum pool from 8 TG-allergic donors, IgE reactivity; type: binding
Experimental: (§1) 2D DIGE (Difference Gel Electrophoresis) analysis. The complete 2D DIGE analysis was performed by Applied Biomics (Hayward, Calif., US). Briefly, TG extract was run on two 2D gels (3-10 pH range, 12% SDS-acrylamide gel), one was Coomassie blue stained, the other was blotted onto a nitrocellulose membrane. The membrane was then incubated with 5% dried milk in PBS/0.05% Tween to block non-specific binding and subsequently probed with a serum pool from 8 TG-allergic individuals at a dilution of 1:250. IgE and IgG binding was detected using goat anti-human IgE and rabbit anti-human IgG (Sigma-Aldrich, St. Louis, Mo.) and visualized using Cy2-conjugated donkey anti-goat IgG and Cy5-conjugated donkey […] IgG antibodies (Biotium, Hayward, Calif.).
(§2) Mass spectral protein identification was performed by Applied Biomics (Hayward, Calif., US). Briefly, spots of interest were selected from the 2D blot and the corresponding spots were identified on the stained SDS gel and cut out, washed several times to remove staining dye and other inhibitory chemicals. The spots were then dried to absorb maximum digestion buffer. Dried 2D gel spots were rehydrated in digestion buffer containing trypsin. Proteins were digested in-gel at 37° C. and then extracted from the gel with TFA extraction buffer. Subsequently the peptides were desalted using C-18 Zip-tips (Millipore) and mixed with CHCA matrix (alpha-cyano-4-hydroxycinnamic acid) and spotted into wells of a MALDI plate. Mass spectra of the peptides in each sample were obtained using an Applied Biosystems Proteomics Analyzer. The spectra were compared to the amino acid sequences encoded by putative ORFs from the de novo assembled TG pollen transcripts. […] The amino acid sequences encoded by these ORFs were clustered using a custom script at a sequence similarity threshold of 90% to group together highly similar protein sequences. These sequences are encoded by different transcripts from the current assembly, which could arise from splice variants, allelic variation between cells of TG pollen, and from gene families with multiple members. Amino acid sequences that form one cluster are assigned one putative protein ID (Table 1).

[2] = tested on: PBMCs from TG allergic donors; test: IL-5 ELISPOT of TG extract-expanded PBMCs from TG allergic donors (peptide pools, single peptides, TG extract); type: cell-based, human
Experimental: Each donor was recruited following Institutional Review Board approval (Federal Wide Assurance number 00000032) and informed consent and assigned a study identification number. Donors were tested for allergen reactivity by skin prick tests to extracts from 32 common allergens. TG allergic donors were identified as having a skin reaction with a wheal of 5 mm in diameter to TG and a clinical history consistent with seasonal grass pollen allergy. Donors that had received specific immunotherapy were excluded. Non-allergic donors were identified as having negative skin prick tests to all allergens and no clinical history of allergy.
PBMCs were isolated by density gradient centrifugation from one unit of blood (˜450 ml) and cryo-preserved as described previously (12). For in vitro expansions, PBMCs were thawed and cultured in RPMI 1640 (Ω Scientific, Tarzana, Calif.) supplemented with 5% human AB serum (Cellgro, Herndon, Va.) at a density of 2×10^6 cells/ml in 24-well plates (BD Biosciences, San Jose, Calif.) and stimulated with TG pollen extract ([…]) (Greer, Lenoir, N.C.). Cells were kept at 37° C., 5% CO2 and additional IL-2 and IL-7 (10 U/ml, eBioscience, San Diego, Calif.) was added every 3 d after initial antigenic stimulation. On day 14, cells were harvested and screened for reactivity against TG-specific peptide pools (16-25 peptides/pool, averaging 20 peptides/pool). On day 17, peptides from positive pools were tested individually to identify the reactive epitopes.
The production of IL-5 from cultured PBMCs in response to antigen stimulation was measured by ELISPOT as described previously (12). Briefly, 1×10^5 cells/well were incubated with peptide, peptide pool or TG extract (10 μg/ml, 5 μg/ml and 50 μg/ml, respectively). After 24 h, cells were removed and plates were incubated with 2 μg/ml biotinylated anti-human IL-5 Ab (Mabtech) at 37° C. After 2 h, plates were washed and avidin-peroxidase-complex was added (Vector Laboratories, Burlingame, Calif.) for 1 h at RT. Peroxidase-conjugated spots were developed with 3-amino-9-ethylcarvazole solution (Sigma-Aldrich, St. Louis, Mo.). Criteria for peptide pool positivity were 100 SFCs/106 PBMCs, p 0.05, and a stimulation index (SI) 2. Criteria for individual peptides were the same except a minimum of 20 SFCs was counted as positive.

human IgG = test: 2D gel immunoblot of TG extract with serum pool from 8 TG-allergic donors, IgG reactivity; type: binding
Experimental: as §1, §2

[3] = tested on: PBMCs from TG allergic donors; test: IFNg ELISPOT of TG extract-expanded PBMCs from TG allergic donors (single peptides); type: cell-based, human; details: T cell recognition in TG allergic patients; for Total response IFNg Events: number of positive events
[4] = tested on: PBMCs from TG allergic donors; test: as above; type: cell-based, human; details: T cell recognition in TG allergic patients; for Total response IFNg Events: number of response events
[5] = tested on: PBMCs from TG allergic donors; test: as above; type: cell-based, human; details: number of positive response events in TG allergic patients
[6] = E+ / E− part of the cell, reactivity of the parent antigen
[7] = IgE reactivity of the parent TG antigen
[8] = IL-5, number of positive response events
[9] = T cell recognition in TG allergic patients, number of positive events
[10] = G+ / G− part of the cell, reactivity of the parent antigen
[11] = IgG reactivity of the parent TG antigen
[12] = T cell recognition in TG allergic patients
[13] = IgE reactivity (E+/E−) of the source antigen of the peptide
[14] = T cell recognition in TG allergic patients, number of response events
[15] = IgG reactivity (G+/G−) of the source antigen of the peptide
[16] = reactivity of the parent antigen (TG protein) from which the peptide is predicted, E+/E−
[17] = number of positive response events in TG allergic patients
[18] = reactivity of the parent antigen (TG protein) from which the peptide is predicted, G+/G−

| Substance | Total response IFNg Events [1] | Antibody reactvity IgE/IgG (IgE part) (human IgE; [6]) | Antibody reactvity IgE/IgG (IgE part) (human IgE; [7]) | Total response IL-5 Events [2, 8] | Total response IL-5 Events [2, 9] | Antibody reactvity IgE/IgG (IgG part) (human IgG; [10]) | Antibody reactvity IgE/IgG (IgG part) (human IgG; [11]) | Total response IFNg Events [3] | Total response IL-5 SFC ([2]; IL-5, total SFC) [SFC] | Total response IL-5 SFC [2, 12] [SFC] | further results |
| --- | --- | --- | --- | --- | --- | --- | --- | --- | --- | --- | --- |
| 83 (TIVASGIENMKIFTR; Phleum pratense) [Peptide 83] | 1 | E+ | E+ | 0 | 0 | G+ | G+ | 1 | – | – | Total response IFNg SFC [1]: 293 SFC; Total response IFNg SFC [3]: 293 SFC |
| 141 (LLGYLLWVVAIRRPR; Phleum pratense) [Peptide 141] | 0 | E+ | E+ | 1 | 1 | G+ | G+ | 0 | 110 | 110 | – |
| 252 (SAPALRILRSFPSHS; Phleum pratense) [Peptide 252] | 1 | E+ | – | 1 | – | G− | – | – | 97 | 97 | Total response IFNg SFC [1]: 143 SFC; Total response IFNg SFC [4]: 143 SFC; Total response IFNg Events [4]: 1; Antibody reactivity IgE/IgG: IgE (human IgE; [13]): E+; Total response IL-5 Events [2, 14]: 1; Antibody reactivity IgE/IgG: IgG (human IgG; [15]): G− |
| 350 (LKDGSTYSFRFSFIV; Phleum pratense) [Peptide 350] | 0 | E+ | E+ | 1 | 1 | G+ | G+ | 0 | 20 | 20 | – |
| 375 (EEAASTLPGLSSSTL; Phleum pratense) [Peptide 375] | – | – | – | – | – | – | – | – | – | – | Total response IFNg Events [4]: 0; Antibody reactivity IgE/IgG: IgE (human IgE; [13]): E−; Total response IL-5 Events [2, 14]: 0; Antibody reactivity IgE/IgG: IgG (human IgG; [15]): G+ |
| 411 (SSTRGWCSRRRAGRG; Phleum pratense) [Peptide 411] | 0 | E− | – | 0 | – | G+ | – | – | – | – | Antibody reactivity IgE/IgG: IgE (human IgE; [16]): E−; Total response IL-5 Events [2, 17]: 0; Antibody reactivity IgE/IgG: IgG (human IgG; [18]): G+; Total response IFNg Events [5]: 0 |
| 455 (KRPPRCCQDLVVLPL; Phleum pratense) [Peptide 455] | – | – | – | – | – | – | – | – | – | – | Antibody reactivity IgE/IgG: IgE (human IgE; [16]): E−; Total response IL-5 Events [2, 17]: 0; Antibody reactivity IgE/IgG: IgG (human IgG; [18]): G+; Total response IFNg Events [5]: 0 |

— US10428124B2, “Timothy grass allergens and methods and uses for immune response modulation” (LA JOLLA INSTITUTE FOR ALLERGY AND IMMUNOLOGY, priority 2012, dated 2019)
